According to ChEMBL document CHEMBL3046807, “Synthesis and anti-inflammatory evaluation of some new 3,6-disubstituted-1,2,4-triazolo-[3,4-b]-1,3,4-thiadiazoles bearing pyrazole moiety” (2012):

Key:
Rattus norvegicus [1] = experiment: Anti-inflammatory activity in Rattus norvegicus Wistar (rat) assessed as inhibition of carrageenan-induced paw edema at 20 mg/kg, ip administered 30 min post carrageenan-challenge measured after 2.5 hr relative to control; type: functional; settings: route intraperitoneal
Rattus norvegicus [2] = experiment: Anti-inflammatory activity in Rattus norvegicus Wistar (rat) assessed as inhibition of carrageenan-induced paw edema at 10 mg/kg, ip administered 30 min post carrageenan-challenge measured after 2.5 hr relative to control; type: functional; settings: route intraperitoneal

| SMILES | inhibition in vivo at 20 mg/kg (Rattus norvegicus [1]) [%] | inhibition in vivo at 10 mg/kg (Rattus norvegicus [2]) [%] |
| --- | --- | --- |
| CCc1nnc2sc(-c3c[nH]nc3-c3ccc(Cl)cc3Cl)nn12 | 25.5 | – |
| CCc1nnc2sc(-c3c[nH]nc3-c3ccc(Cl)cc3)nn12 | 56.9 | – |
| O=C(O)Cc1ccccc1Nc1c(Cl)cccc1Cl [DICLOFENAC SODIUM] | – | 80.4 |
| CCc1nnc2sc(-c3c[nH]nc3-c3ccccc3)nn12 | 29.4 | – |
| CCCc1nnc2sc(-c3c[nH]nc3-c3ccc(OC)cc3)nn12 | 13.5 | – |
| CCc1nnc2sc(-c3c[nH]nc3-c3ccc(F)cc3)nn12 | 23.5 | – |
| CCCc1nnc2sc(-c3c[nH]nc3-c3ccc(F)cc3)nn12 | 12 | – |
| CCc1nnc2sc(-c3c[nH]nc3-c3ccc(OC)cc3)nn12 | 17.6 | – |
| CCCc1nnc2sc(-c3c[nH]nc3-c3ccc(Cl)cc3)nn12 | 64.7 | – |
| CCCc1nnc2sc(-c3c[nH]nc3-c3ccccc3)nn12 | 56.9 | – |
| CCCc1nnc2sc(-c3c[nH]nc3-c3ccc(Cl)cc3Cl)nn12 | 23.5 | – |
